Test results: PubChem BioAssay (NCI)
“And” between values parts separate entries of the source, which are not always exact repeats. Equal entries are not always repeated.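 Cultured in 96-well plates, cells were exposed to test compound for 48 hours across five concentrations. GI50 marks 50% less growth. TGI: total growth inhibition.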

Legend:
Test in all cases: NCI tumour cell line growth inhibition, 48 h
NCI/ADR-RES ovarian = test system: NCI/ADR-RES ovarian
SNB-19 CNS = test system: SNB-19 CNS
SK-MEL-2 melanoma = test system: SK-MEL-2 melanoma
M14 melanoma = test system: M14 melanoma
TK-10 renal = test system: TK-10 renal
MDA-MB-231 breast = test system: MDA-MB-231 breast
MDA-MB-435 = test system: MDA-MB-435
SK-MEL-5 melanoma = test system: SK-MEL-5 melanoma
HT29 colon = test system: HT29 colon
K-562 leukemia = test system: K-562 leukemia

Structure (SMILES)	GI50 (NCI/ADR-RES ovarian) [µM]	TGI (NCI/ADR-RES ovarian)	GI50 (SNB-19 CNS) [µM]	TGI (SNB-19 CNS) [µM]	GI50 (SK-MEL-2 melanoma) [µM]	TGI (SK-MEL-2 melanoma) [µM]	GI50 (M14 melanoma)	TGI (M14 melanoma) [µM]	GI50 (TK-10 renal) [µM]	TGI (TK-10 renal) [µM]	GI50 (MDA-MB-231 breast) [µM]	TGI (MDA-MB-231 breast)	GI50 (MDA-MB-435) [µM]	TGI (MDA-MB-435)	GI50 (SK-MEL-5 melanoma) [µM]	TGI (SK-MEL-5 melanoma)	GI50 (HT29 colon) [µM]	TGI (HT29 colon)	TGI (K-562 leukemia) [µM]	GI50 (K-562 leukemia) [µM]
COc1cccc2c(=O)c3c(sc12)c(N1CCNCC1)nc1ccccc13	1.75	3.45 µM	1.79	3.39	1.94	3.88	1.86 µM	3.48	1.85	3.44	1.7	3.32 µM	1.76	3.23 µM	1.7	3.09 µM	1.46	3.11 µM		
O=C(O)[C@H](NS(=O)(=O)c1ccc([N+](=O)[O-])cc1)c1ccccc1				> 100		> 100		> 100		> 100						> 100 µM		> 100 µM	> 100	
COc1cc(/C=C(\C#N)c2ccccc2)cc(OC)c1				> 100		> 100		> 100		> 100						> 100 µM		> 100 µM	79.7	
CN(CCC#N)c1ccc(/C=C(\C#N)c2ccc(Br)cc2)cc1			> 100	> 100					> 100	> 100	4.72	> 100 µM	1.97	> 100 µM			3.16	> 100 µM	> 100	3.5
O=C1CSC(/C(=N/Nc2ccccc2)c2nc3ccccc3[nH]2)=N1				> 100		> 100		> 100		> 100						> 100 µM		> 100 µM	> 100	
O=C(NCO)NCOCn1c(=O)n(CO)c(=O)n(CO)c1=O				> 31.6		33.8		31.7		> 100						> 83 µM		99.7 µM	> 79.2	
C=C1C(=O)OC2/C=C(\COC(C)=O)CCC(OC(C)=O)C3=CC(OC3=O)C12 (stereo not given)				36.3		14.7		10		15.4		41.7 µM		32.9 µM		26.7 µM		15.8 µM	7.63	
O=C1OC2CCCC[C@@H]2C2C[C@]34CCCCC3[C@@H](C(=O)O4)C12 (stereo not given in full)				> 100		> 100		> 100		> 100						> 100 µM		> 100 µM	> 100	
O=C1CCCC[C@H]1[C@H]1CCC[C@@H]([C@H]2CCCCC2=O)C1=O				> 100		> 100		> 100		> 100						> 100 µM		> 100 µM	> 100	
O=C1CC2c3ccccc3CCC2c2ccccc21 (stereo not given)				> 100		35.9		33.4		> 100		80 µM		98.6 µM		31 µM		30.6 µM	> 100	
N#CC1CC2(C1)OCCS2 (stereo not given)				> 100		> 100		> 100		> 100								> 100 µM	> 100	
Nc1ccc2cc3ccc(N)cc3nc2c1	1.21	5.25 µM and 5.26 µM and 11.2 µM					1.77 µM [middle of 4 runs]		0.513			7.94 µM and 5.03 µM and 8.4 µM		4.37 µM and 4.04 µM		2.74 µM and 4.33 µM and 2.93 µM		9.02 µM [middle of 4 runs]		
S=C1OC2CCCC[C@H]2O1 (stereo not given in full)				> 100		> 100		> 100		> 100						> 100 µM		> 100 µM	> 100	
CCOC(=O)NC(=O)c1cn(CCCOC(=O)CCCCCCCCCCC(=O)OCCCn2cc(C(=O)NC(=O)OCC)c(=O)[nH]c2=O)c(=O)[nH]c1=O				> 100		> 100		> 100		> 100						> 100 µM		> 100 µM	> 100	
O=C1NC2OC(C(O)CO)C(O)C2O1 (stereo not given)				> 100		> 100		> 100		> 100						> 100 µM		> 100 µM	> 100	
Cc1ncc(CCCN(C)C)cc1Nc1ncc2c(n1)-c1ccc(C(F)(F)F)cc1NC(=S)C2	0.172	> 67.7 µM	0.0713	68.9	1.08	6.99	< 0.016 µM	15.7	0.65	19.8	< 0.0153	0.302 µM			< 0.0282	4.85 µM	< 0.0168	10.2 µM	> 34	< 0.0169
O=C1[C@@H]2C(c3ccccc3F)=NO[C@@H]2C(=O)N1c1ccc(Cc2ccc(N3C(=O)[C@H]4C(c5ccccc5F)=NO[C@H]4C3=O)cc2)cc1				> 100		> 100		> 100		> 31.6						> 100 µM		> 100 µM	> 100	
Cc1ccc(-c2nc3ccc(Cl)cc3c(=O)n2N2C(=O)CSC2c2ccccc2Cl)cc1 (stereo not given)	8.87	> 100 µM	5	> 100			56.2 µM	> 100			4.21	> 100 µM	> 100	> 100 µM	20	> 100 µM	60.2	> 100 µM	> 100	> 100
CC(C)C[C@H](NC(=O)/C=C/Cn1ccc2ccccc2c1=O)B(O)O	90.8	> 100 µM	6.49	> 100	3.12	23.5	2.92 µM	10.1	3.27	10.4	2.85	8.14 µM	1.48	2.96 µM	2.36	6.16 µM			> 100	6
COc1cc(/C=C/c2cc(/C=C/c3ccc(O)c(OC)c3)n(C(=O)Nc3ccc(C)cc3C)n2)ccc1O	0.335	2.66 µM							0.529	2.16	0.613	6.01 µM			0.327	1.26 µM	0.903	3.59 µM	1.17	0.292
N#Cc1cccnc1Cl				> 100		> 100		> 100		> 100						> 100 µM		> 100 µM	> 100	
O=C1CC2CCCC23CC2(CCN13)OCCO2 (stereo not given)				> 100		> 100		> 100		> 100						> 100 µM		> 100 µM	> 100	
